Read-outs that look alike come from different tables or passages of the source.
Experiments:
HT-29 cells = assay: MTT cytotoxicity in HT-29 cells; assay type: cell-based, Human; conditions: Homo sapiens, MTT
Experimental: (§1) As the anti-neuroinflammatory agents for cancer patients, all newly synthesized compounds were evaluated in vitro for antitumor activity against human breast cancer cell line MDA-MB-231, colorectal cancer cells HT-29 and HCT-116, and lung cancer cell line A549 by using the standard MTT method, respectively. Doxorubicin (DOX) and DHA were used as the reference standard. Additionally, owing to the rapid proliferation, the tumor cells actually was always in hypoxia condition. Therefore, the in vitro cytotoxicity was evaluated in two different conditions (hypoxia and normoxia).
After recovery, the cells were cultured in 96-well plates for 24 h at 37 °C in a humidified atmosphere with 95% air and 5% CO2. After treated with different tested compounds, the hypoxia groups were placed in a sealed hypoxia incubator chamber (Stemcell Technologies, Inc., Vancouver, BC, Canada) filled with 5% CO2 and 95% N2 for 24 h, and then transferred to the incubator chamber filled with air for 72 h. […]
(§2) Cancer cells HT-29 (Human Colorectal Adenocarcinoma cell line), MDA-MB-231 (Human Breast Cancer cell line), HCT-116 (Human Colorectal Carcinoma cell line), and A549 (Human Lung Adenocarcinomic cell line) were from ATCC.
When the adherent cells reached 80% confluence, the culture medium was discarded. The cells were digested by trypsin and collected after centrifugation. The fresh culture medium was gently blown into it to form single-cell suspension. Cell suspension will be diluted to 1.5–3 × 10^4 cells/mL. Each hole of 96-well plates was added 100 μL cell suspension and incubated for 24 h (5% CO2; 37 °C). Then the holes were added different concentrations of tested compounds. The early screening concentration is set to 100 μM, 50 μM, 25 μM, 12.5 μM, and 6.25 μM. Three replicates were made for each concentration of the tested compounds. […] The medium was discarded and each well was added 100 μL DMSO to dissolve the formazan blue. Absorbance was measured at 570 nm with a microplate reader (Synergy-HT, BioTek Instruments, Winooski, VT, USA). […]

MDA-MB-231 cells = assay: MTT cytotoxicity in MDA-MB-231 cells; assay type: cell-based; conditions: Homo sapiens
Experimental: as §1
(§3) After recovery, the cells were cultured in 96-well plates for 24 h at 37 °C in a humidified atmosphere with 95% air and 5% CO2. After treated with different tested compounds, the hypoxia groups were placed in a sealed hypoxia incubator chamber (Stemcell Technologies, Inc., Vancouver, BC, Canada) filled with 5% CO2 and 95% N2 for 24 h, and then transferred to the incubator chamber filled with air for 72 h. On the contrary, the normoxia groups were cultured under air condition for 96h.
as §2
(§4) When the adherent cells reached 80% confluence, the culture medium was discarded. The cells were digested by trypsin and collected after centrifugation. The fresh culture medium was gently blown into it to form single-cell suspension. Cell suspension will be diluted to 1.5–3 × 10^4 cells/mL. Each hole of 96-well plates was added 100 μL cell suspension and incubated for 24 h (5% CO2; 37 °C). Then the holes were added different concentrations of tested compounds. The early screening concentration is set to 100 μM, 50 μM, 25 μM, 12.5 μM, and 6.25 μM. Three replicates were made for each concentration of the tested compounds. After the cells were grown for 96h, 20 μL MTT (5 mg/mL) was added to each well and incubated for 4 h. The medium was discarded and each well was added 100 μL DMSO to dissolve the formazan blue. Absorbance was measured at 570 nm with a microplate reader (Synergy-HT, BioTek Instruments, Winooski, VT, USA).
(§5) Hypoxia condition: The cells were treated with different concentration of tested compounds, placed in hypoxia chamber (Catalog Number 27310, Stemcell Technologies, Inc., Vancouver, BC, Canada), and incubated for 24 h ([…]; 37 °C). Then the cells were placed in normoxia condition (5% CO2; 37 °C) and incubated for 72 h.

[1] = tested on: NO release of LPS-induced microglial N9 cells; assay: Inhibition of NO release in LPS-induced N9 cells (Griess); assay type: cell-based, murine; conditions: Mus musculus, 1 μg/mL LPS for 48 h, NO level in medium
Experimental: (§6) The anti-neuroinflammatory activity of DCH was evaluated and then the representative compounds were selected for the further study. […] In addition, in order to exclude the death influence, MTT-IC20 of all the compounds were measured. […] The exact reason was still unclear, but we supposed that it might be related to the homeostasis of cells. The tumor cells actually were always in hypoxia condition, in which DCH could promote the cytotoxic activity against tumor cells. In brief, DCH could reduce the release of NO caused by LPS-induced microglial cells.
(§7) N9 cells, which were in the logarithmic phase, were incubated for 24 h by adherent culture. Subsequently, the medium was changed to new one without serum. The cells were treated with different concentration of tested compounds. After specific time in the LPS condition, the supernatants were collected and analyzed.
The nitrite levels in medium were determined by Griess reaction. The absorbance was measured at 540 nm using a microplate reader.

HCT-116 cells = assay: MTT cytotoxicity in HCT-116 cells; assay type: cell-based; conditions: Homo sapiens
Experimental: as §1, §3, §2, §4, §5

A549 cells = assay: MTT cytotoxicity in A549 cells; assay type: cell-based; conditions: Homo sapiens
Experimental: as §1, §3, §2, §4, §5

[2] = MTT cytotoxicity in N9 cells; assay type: cell-based, murine; conditions: mouse, N9 microglial cells, cytotoxic activity
Experimental: as §6, §4, §7

[3] = HT-29, hypoxia 24 h then normoxia 72 h, read-out: IC50 HT-29 Hypoxia
[4] = HT-29, normoxia 96 h, read-out: IC50 HT-29 Normoxia
[5] = MDA-MB-231, hypoxia 24 h then normoxia 72 h, read-out: IC50 MDA-MB-231 Hypoxia
[6] = MDA-MB-231, normoxia 96 h, read-out: IC50 MDA-MB-231 Normoxia
[7] = HCT-116, hypoxia 24 h then normoxia 72 h, read-out: IC50 HCT-116 Hypoxia
[8] = HCT-116, normoxia 96 h, read-out: IC50 HCT-116 Normoxia
[9] = A549, hypoxia 24 h then normoxia 72 h, read-out: IC50 A549 Hypoxia
[10] = A549, normoxia 96 h, read-out: IC50 A549 Normoxia

Structure (SMILES)	IC50 [1]	melting point	IC50 (HT-29 cells; [3])	IC50 (HT-29 cells; [4])	IC50 (MDA-MB-231 cells; [5])	IC50 (MDA-MB-231 cells; [6])	IC50 (HCT-116 cells; [7])	IC50 (HCT-116 cells; [8])	IC50 (A549 cells; [9])	IC50 (A549 cells; [10])	IC20 [2]
C[C@H]1[C@@H](OCc2cn(Cc3cc4cc(Cl)ccc4oc3=O)nn2)O[C@@H]2O[C@@]3(C)CC[C@H]4[C@H](C)CC[C@@H]1[C@@]24OO3 [1c, 6-chloro-3-((4-((10S)-dihydroartemisininoxy)methyl-1H-1,2,3-triazol-1-yl)-methyl)-2H-1-chromen-2-one]	5.33 µM	93 to 95 °C	26.4 µM	35.4 µM	32.3 µM	> 100 µM	40.4 µM	60.3 µM	48.7 µM	73.5 µM	> 10 µM
C[C@H]1[C@@H](OCc2cn(Cc3cc4cc(Cl)cc(Cl)c4oc3=O)nn2)O[C@@H]2O[C@@]3(C)CC[C@H]4[C@H](C)CC[C@@H]1[C@@]24OO3 [1d, 6,8-dichloro-3-((4-((10S)-dihydroartemisininoxy)methyl-1H-1,2,3-triazol-1-yl)-methyl)-2H-1-chromen-2-one]	1.6 µM	113 to 115 °C	13.3 µM	14.9 µM	33.9 µM	68.9 µM	48.6 µM	60 µM	45.4 µM	53.3 µM	> 10 µM
C[C@H]1[C@@H](OCc2cn(Cc3cc4ccccc4oc3=O)nn2)O[C@@H]2O[C@@]3(C)CC[C@H]4[C@H](C)CC[C@@H]1[C@@]24OO3 [1a, 3-((4-((10S)-dihydroartemisininoxy)methyl-1H-1,2,3-triazol-1-yl)-methyl)-2H-1-chromen-2-one]	1.46 µM	73 to 75 °C	14.3 µM	18.4 µM	30.5 µM	65 µM	49.8 µM	48.9 µM	53.9 µM	83.5 µM	> 10 µM
C[C@H]1[C@@H](OCCc2cn(Cc3cc4cc(Br)cc(Br)c4oc3=O)nn2)O[C@@H]2O[C@@]3(C)CC[C@H]4[C@H](C)CC[C@@H]1[C@@]24OO3 [2e, 6,8-dibromo-3-((4-(2-((10S)-dihydroartemisininoxy)ethyl)-1H-1,2,3-triazol-1-yl)-methyl)-2H-1-chromen-2-one]	0.94 µM	93 to 95 °C	13.9 µM	38.5 µM	44.1 µM	> 100 µM	86.5 µM	94.2 µM	79.4 µM	> 100 µM	> 10 µM
C[C@H]1[C@@H](OCCc2cn(Cc3cc4ccccc4oc3=O)nn2)O[C@@H]2O[C@@]3(C)CC[C@H]4[C@H](C)CC[C@@H]1[C@@]24OO3 [2a, 3-((4-(2-((10S)-dihydroartemisininoxy)ethyl)-1H-1,2,3-triazol-1-yl)-methyl)-2H-1-chromen-2-one]	0.97 µM	143 to 145 °C	19.4 µM	> 100 µM	> 100 µM	> 100 µM	> 100 µM	> 100 µM	> 100 µM	> 100 µM	> 10 µM
C[C@H]1[C@@H](OCCc2cn(Cc3cc4cc(Cl)cc(Cl)c4oc3=O)nn2)O[C@@H]2O[C@@]3(C)CC[C@H]4[C@H](C)CC[C@@H]1[C@@]24OO3 [2d, 6,8-dichloro-3-((4-(2-((10S)-dihydroartemisininoxy)ethyl)-1H-1,2,3-triazol-1-yl)-methyl)-2H-1-chromen-2-one]	1.35 µM	101 to 103 °C	30.8 µM	19.5 µM	47.9 µM	88.5 µM	46.5 µM	53.2 µM	69.7 µM	96.5 µM	> 10 µM
C[C@H]1[C@@H](OCc2cn(Cc3cc4cc(Br)ccc4oc3=O)nn2)O[C@@H]2O[C@@]3(C)CC[C@H]4[C@H](C)CC[C@@H]1[C@@]24OO3 [1b, 6-bromo-3-((4-((10S)-dihydroartemisininoxy)methyl-1H-1,2,3-triazol-1-yl)-methyl)-2H-1-chromen-2-one]	> 10 µM	78 to 80 °C	13.1 µM	21.4 µM	> 100 µM	> 100 µM	> 100 µM	> 100 µM	> 100 µM	> 100 µM	> 10 µM

Now from value to molecule, other results behind:

IC50 [1]	melting point	Structure (SMILES)	IC50 (HT-29 cells; [3])	IC50 (HT-29 cells; [4])	IC50 (MDA-MB-231 cells; [5])	IC50 (MDA-MB-231 cells; [6])	IC50 (HCT-116 cells; [7])	IC50 (HCT-116 cells; [8])	IC50 (A549 cells; [9])	IC50 (A549 cells; [10])	IC20 [2]
1.91 µM	80 to 82 °C	Cc1ccc2c(OCc3cn(CCCO[C@H]4O[C@@H]5O[C@@]6(C)CC[C@H]7[C@H](C)CC[C@@H]([C@H]4C)[C@@]57OO6)nn3)cc(=O)oc2c1 [6k]	5.32 µM	6.85 µM	14.5 µM	38.6 µM	33.7 µM	28.1 µM	9.49 µM	14.9 µM	> 10 µM
0.29 µM	74 to 76 °C	C[C@H]1[C@@H](OCCCn2cc(COc3cc(=O)oc4ccccc34)nn2)O[C@@H]2O[C@@]3(C)CC[C@H]4[C@H](C)CC[C@@H]1[C@@]24OO3 [6j]	7.42 µM	10.5 µM	33.4 µM	67.4 µM	32.8 µM	25.9 µM	49 µM	53.4 µM	> 10 µM
5.8 µM	90 to 92 °C	Cc1cc(C)c2oc(=O)cc(OCc3cn(CCCO[C@H]4O[C@@H]5O[C@@]6(C)CC[C@H]7[C@H](C)CC[C@@H]([C@H]4C)[C@@]57OO6)nn3)c2c1 [6m]	5.9 µM	22.4 µM	18.7 µM	24.6 µM	93.5 µM	42.1 µM	20.1 µM	27.9 µM	> 10 µM
1.43 µM	143 to 145 °C	Cc1cccc2c(OCc3cn(CCCO[C@H]4O[C@@H]5O[C@@]6(C)CC[C@H]7[C@H](C)CC[C@@H]([C@H]4C)[C@@]57OO6)nn3)cc(=O)oc12 [6o]	29 µM	81.6 µM	18.6 µM	47.6 µM	42.4 µM	12.1 µM	39.9 µM	78.1 µM	> 10 µM

From paper PMC6539525, “Design, Synthesis, and Mechanism of Dihydroartemisinin–Coumarin Hybrids as Potential Anti-Neuroinflammatory Agents” (Molecules, 2019)
